In patent publication US9242970B2 (ACTELION PHARMACEUTICALS LTD., priority 2010, dated 2016):
Read-outs that look alike come from different tables or passages of the source.

Tests used:
human orexin-1 receptor = human orexin-1 receptor (Homo sapiens (Human), UniProt O43613); experiment: In vitro assay: intracellular calcium measurements (FLIPR), antagonistic activity; format: cell-based; conditions: CHO cells, 3 nM orexin-A, compound incubation 120 min; marked values are geometric means of n = 2-6; read-out: IC50 OX1
Protocol: (§1) In Vitro Assay: Intracellular Calcium Measurements:
(§2) Chinese hamster ovary (CHO) cells expressing the human orexin-1 receptor and the human orexin-2 receptor, respectively, are grown in culture medium (Ham F-12 with L-Glutamine) containing 300 µg/ml G418, 100 U/ml penicillin, 100 µg/ml streptomycin and 10% heat inactivated fetal calf serum (FCS). The cells are seeded at 20,000 cells/well into 384-well black clear bottom sterile plates (Greiner). The seeded plates are incubated overnight at 37° C. in 5% CO2.
(§3) Fluorescence is measured for each well at 1 second intervals, and the height of each fluorescence peak is compared to the height of the fluorescence peak induced by 3 nM orexin-A with vehicle in place of antagonist. […] Optimized conditions were achieved by adjustment of pipetting speed and cell splitting regime. The calculated IC50 values may fluctuate depending on the daily cellular assay performance. Fluctuations of this kind are known to those skilled in the art.

human orexin-2 receptor = human orexin-2 receptor (Homo sapiens (Human), UniProt O43614); experiment: as above; format: cell-based
Protocol: as §1, §2, §3

[1] = CHO cells, 3 nM orexin-A, compound incubation 120 min, marked values are geometric means of n = 2-6, read-out: IC50 OX2

Chain of human orexin-2 receptor (O43614 whole entry): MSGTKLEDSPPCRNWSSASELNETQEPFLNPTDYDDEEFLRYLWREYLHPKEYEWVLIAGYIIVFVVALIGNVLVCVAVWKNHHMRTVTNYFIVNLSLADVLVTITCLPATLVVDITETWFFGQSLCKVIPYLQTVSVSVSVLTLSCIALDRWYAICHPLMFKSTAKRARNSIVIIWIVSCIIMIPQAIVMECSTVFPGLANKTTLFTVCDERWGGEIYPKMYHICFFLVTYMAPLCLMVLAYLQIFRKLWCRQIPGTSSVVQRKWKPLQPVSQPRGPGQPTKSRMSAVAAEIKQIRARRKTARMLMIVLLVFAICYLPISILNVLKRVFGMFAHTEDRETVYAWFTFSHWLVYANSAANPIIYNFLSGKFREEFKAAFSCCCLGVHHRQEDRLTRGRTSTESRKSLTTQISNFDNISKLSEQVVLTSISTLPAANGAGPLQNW
Chain of human orexin-1 receptor (O43613 whole entry): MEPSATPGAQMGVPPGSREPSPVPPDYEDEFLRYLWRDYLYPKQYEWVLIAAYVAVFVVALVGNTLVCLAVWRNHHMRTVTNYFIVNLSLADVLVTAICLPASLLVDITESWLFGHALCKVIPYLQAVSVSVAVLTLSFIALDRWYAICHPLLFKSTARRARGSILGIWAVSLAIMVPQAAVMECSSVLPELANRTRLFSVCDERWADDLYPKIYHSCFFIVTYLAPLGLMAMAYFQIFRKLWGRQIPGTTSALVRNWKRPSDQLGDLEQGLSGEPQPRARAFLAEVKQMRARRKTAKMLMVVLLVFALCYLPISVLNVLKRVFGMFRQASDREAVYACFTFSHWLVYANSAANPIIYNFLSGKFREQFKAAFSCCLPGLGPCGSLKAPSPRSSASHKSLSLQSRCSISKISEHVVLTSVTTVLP

| IC50 (human orexin-1 receptor) | IC50 (human orexin-2 receptor; [1]) | SMILES | IC50 (human orexin-2 receptor) |
| --- | --- | --- | --- |
| 740 nM | 108 nM | COc1cccc(Cl)c1[C@@H]1C[C@H](Cl)C(=O)N1Cc1ccc(OC(F)(F)F)cc1 (racemic) [Example 306, rac-(3S*,5S*)-3-chloro-5-(2-chloro-6-methoxyphenyl)-1-(4-(trifluoromethoxy)benzyl)pyrrolidin-2-one] | – |
| 2220 nM | 887 nM | COc1cccc(C)c1[C@@H]1C[C@@H](O)C(=O)N1Cc1ccc(OC(F)(F)F)cc1 (racemic) [Example 309, rac-(3R*,5S*)-3-hydroxy-5-(2-methoxy-6-methylphenyl)-1-(4-(trifluoromethoxy)benzyl)pyrrolidin-2-one] | – |
| 2200 nM | 826 nM | COc1ccc2ccccc2c1[C@@H]1C[C@@H](O)C(=O)N1Cc1ccc(OC(F)(F)F)cc1 (racemic) [Example 312, rac-(3R*,5S*)-3-hydroxy-5-(2-methoxynaphthalen-1-yl)-1-(4-(trifluoromethoxy)benzyl)pyrrolidin-2-one] | – |
| 1460 nM | 1030 nM | COc1c(F)ccc(F)c1[C@@H]1C[C@@H](O)C(=O)N1Cc1ccc(OC(F)(F)F)cc1 (racemic) [Example 313, rac-(3R*,5S*)-5-(3,6-difluoro-2-methoxyphenyl)-3-hydroxy-1-(4-(trifluoromethoxy)benzyl)pyrrolidin-2-one] | – |
| 1100 nM | 920 nM | COc1ccc(Cl)c(OC)c1[C@@H]1C[C@@H](O)C(=O)N1Cc1ccc(OC(F)(F)F)cc1 (racemic) [Example 314, rac-(3R*,5S*)-5-(3-chloro-2,6-dimethoxyphenyl)-3-hydroxy-1-(4-(trifluoromethoxy)benzyl)pyrrolidin-2-one] | – |
| 329 nM | 1040 nM | COc1ccc2ccccc2c1[C@@H]1C[C@H](Cl)C(=O)N1Cc1ccc(OC(F)(F)F)cc1 (racemic) [Example 316, rac-(3S*,5S*)-3-chloro-5-(2-methoxynaphthalen-1-yl)-1-(4-(trifluoromethoxy)benzyl)pyrrolidin-2-one] | – |
| 167 nM | 444 nM | COc1ccc(Cl)c(OC)c1[C@@H]1C[C@H](Cl)C(=O)N1Cc1ccc(OC(F)(F)F)cc1 (racemic) [Example 318, rac-(3S*,5S*)-3-chloro-5-(3-chloro-2,6-dimethoxyphenyl)-1-(4-(trifluoromethoxy)benzyl)pyrrolidin-2-one] | – |
| 971 nM | 1020 nM | COc1ccc(Cl)c(OC)c1[C@@H]1C[C@H](F)C(=O)N1Cc1ccc(OC(F)(F)F)cc1 (racemic) [Example 319, rac-(3S*,5S*)-5-(3-chloro-2,6-dimethoxyphenyl)-3-fluoro-1-(4-(trifluoromethoxy)benzyl)pyrrolidin-2-one] | – |
| 968 nM | 1210 nM | COc1cccc(F)c1[C@@H]1C[C@@H](Cl)C(=O)N1Cc1ccc(OC(F)(F)F)cc1 (racemic) [Example 324, rac-(3R*,5S*)-3-chloro-5-(2-fluoro-6-methoxyphenyl)-1-(4-(trifluoromethoxy)benzyl)pyrrolidin-2-one] | – |
| 1520 nM | 126 nM | COc1cccc(C)c1[C@@H]1C[C@H](Cl)C(=O)N1Cc1ccc(OC(F)(F)F)cc1 (racemic) [Example 326, rac-(3S*,5S*)-3-chloro-5-(2-methoxy-6-methylphenyl)-1-(4-(trifluoromethoxy)benzyl)pyrrolidin-2-one] | – |
| 1020 nM | 296 nM | COc1ccc(F)c(OC)c1[C@@H]1C[C@H](F)C(=O)N1Cc1ccc(OC(F)(F)F)cc1 (racemic) [Example 332, rac-(3S*,5S*)-3-fluoro-5-(3-fluoro-2,6-dimethoxyphenyl)-1-(4-(trifluoromethoxy)benzyl)pyrrolidin-2-one] | – |
| 965 nM | 184 nM | CCOc1cccc(F)c1[C@@H]1C[C@@H](Cl)C(=O)N1Cc1ccc(OC(F)(F)F)cc1 (racemic) [Example 333, rac-(3R*,5S*)-3-chloro-5-(2-ethoxy-6-fluorophenyl)-1-(4-(trifluoromethoxy)benzyl)pyrrolidin-2-one] | – |
| 603 nM | 15 nM | CCOc1cccc(F)c1[C@@H]1C[C@H](Cl)C(=O)N1Cc1ccc(OC(F)(F)F)cc1 (racemic) [Example 343, rac-(3S*,5S*)-3-chloro-5-(2-ethoxy-6-fluorophenyl)-1-(4-(trifluoromethoxy)benzyl)pyrrolidin-2-one] | – |

More lines, now with the values behind:

| SMILES | IC50 (human orexin-1 receptor) | IC50 (human orexin-2 receptor; [1]) | IC50 (human orexin-2 receptor) |
| --- | --- | --- | --- |
| CCOc1c(F)cccc1[C@@H]1C[C@H](F)C(=O)N1Cc1ccc(OC(F)(F)F)cc1 (racemic) [Example 331, rac-(3S*,5S*)-5-(2-ethoxy-3-fluorophenyl)-3-fluoro-1-(4-(trifluoromethoxy)benzyl)pyrrolidin-2-one] | 1150 nM | 434 nM | – |
| CCOc1cccc(F)c1[C@@H]1C[C@@H](O)C(=O)N1Cc1ccc(OC(F)(F)F)cc1 (racemic) [Example 334, rac-(3R*,5S*)-5-(2-ethoxy-6-fluorophenyl)-3-hydroxy-1-(4-(trifluoromethoxy)benzyl)pyrrolidin-2-one] | 2120 nM | 33 nM | – |
| CCOc1cc(F)ccc1[C@@H]1C[C@@H](O)C(=O)N1Cc1ccc(OC(F)(F)F)cc1 (racemic) [Example 335, rac-(3R*,5S*)-5-(2-ethoxy-4-fluorophenyl)-3-hydroxy-1-(4-(trifluoromethoxy)benzyl)pyrrolidin-2-one] | 5350 nM | 1360 nM | – |
| CCOc1ccc(F)c(F)c1[C@@H]1C[C@H](F)C(=O)N1Cc1ccc(OC(F)(F)F)cc1 (racemic) [Example 340, rac-(3S*,5S*)-5-(6-ethoxy-2,3-difluorophenyl)-3-fluoro-1-(4-(trifluoromethoxy)benzyl)pyrrolidin-2-one] | 981 nM | 17 nM | – |
| CCOc1cc(F)ccc1[C@@H]1C[C@@H](Cl)C(=O)N1Cc1ccc(OC(F)(F)F)cc1 (racemic) [Example 341] | 3340 nM | 1630 nM | – |
| CCOc1cccc(F)c1[C@@H]1C[C@H](F)C(=O)N1Cc1ccc(OC(F)(F)F)cc1 (racemic) [Example 342, rac-(3S*,5S*)-5-(2-ethoxy-6-fluorophenyl)-3-fluoro-1-(4-(trifluoromethoxy)benzyl)pyrrolidin-2-one] | 1110 nM | 8 nM | – |
| CCOc1cc(F)ccc1[C@@H]1C[C@H](Cl)C(=O)N1Cc1ccc(OC(F)(F)F)cc1 (racemic) [Example 345] | 745 nM | – | 462 nM |
| COc1cccc(OC)c1[C@@H]1C[C@@H](O)C(=O)N1Cc1ccc2oc3ccccc3c2c1 (racemic) [Example 357, rac-(3R*,5S*)-1-(dibenzo[b,d]furan-2-ylmethyl)-5-(2,6-dimethoxyphenyl)-3-hydroxypyrrolidin-2-one] | 20 nM | 4 nM | – |
| COc1cccc(OC)c1[C@@H]1C[C@H](Cl)C(=O)N1Cc1ccc2oc3ccccc3c2c1 (racemic) [Example 369, rac-(3S*,5S*)-3-chloro-1-(dibenzo[b,d]furan-2-ylmethyl)-5-(2,6-dimethoxyphenyl)pyrrolidin-2-one] | 2 nM | 5 nM | – |
| CCOc1cccc(F)c1[C@@H]1C[C@@H](O)C(=O)N1Cc1ccc(OC(F)(F)F)c(F)c1 (racemic) [Example 428, rac-(3R*,5S*)-5-(2-ethoxy-6-fluorophenyl)-1-(3-fluoro-4-(trifluoromethoxy)benzyl)-3-hydroxypyrrolidin-2-one] | 1710 nM | 53 nM | – |
